The values that follow are results of earlier work, collected in patent publication US20170058282A1 (priority 2015, published 2017).

The series relates to heme sensor system HssRS (histidine kinase HssS / response regulator HssR). Particulars: natural HssRS; cited from earlier work.

In the case of `C=CC1=C(C)c2cc3[nH]c(cc4nc(cc5[nH]c(cc1n2)c(C)c5CCC(=O)O)C(CCC(=O)O)=C4C)c(C)c3C=C.[Fe+2]` [heme], the “responsive concentrations of heme” value is on record as “sub-μM”.
